In the NIST ThermoML archive (doi:10.1016/j.jct.2013.05.030):
Numbers after ± are expanded uncertainties.

What was measured:
[1] = 293.15 K; 101.33 kPa; Liquid; Vibrating tube method
[2] = activity coefficient (dimensionless); of the first substance listed, at infinite dilution; xn = mol fraction of the nth substance listed; conditions: 101 kPa, Liquid, Chromatography, x1 = 0

Row | SMILES | mass density [1] | activity coefficient ([2]; 313.15 K) | activity coefficient ([2]; 333.15 K) | activity coefficient ([2]; 353.15 K) | activity coefficient ([2]; 373.15 K)
1 | CCCCCCCCCCCCCC[P+](CCCCCC)(CCCCCC)CCCCCC.O=S(=O)([N-]S(=O)(=O)C(F)(F)F)C(F)(F)F | 1068.87 ± 8.6 kg/m3 | – | – | – | –
2 | C=CCCCCC [1-heptene] + CCCCCCCCCCCCCC[P+](CCCCCC)(CCCCCC)CCCCCC.O=S(=O)([N-]S(=O)(=O)C(F)(F)F)C(F)(F)F | – | 1.03 ± 0.075 | 1.06 ± 0.077 | 1.1 ± 0.08 | 1.12 ± 0.082
3 | C#CCCCCC [1-heptyne] + CCCCCCCCCCCCCC[P+](CCCCCC)(CCCCCC)CCCCCC.O=S(=O)([N-]S(=O)(=O)C(F)(F)F)C(F)(F)F | – | 0.726 ± 0.055 | 0.749 ± 0.056 | 0.762 ± 0.057 | 0.782 ± 0.058
4 | C#CCCCC [1-hexyne] + CCCCCCCCCCCCCC[P+](CCCCCC)(CCCCCC)CCCCCC.O=S(=O)([N-]S(=O)(=O)C(F)(F)F)C(F)(F)F | – | 0.693 ± 0.053 | 0.709 ± 0.054 | 0.72 ± 0.054 | 0.732 ± 0.055
5 | C#CCCCCCCC [1-nonyne] + CCCCCCCCCCCCCC[P+](CCCCCC)(CCCCCC)CCCCCC.O=S(=O)([N-]S(=O)(=O)C(F)(F)F)C(F)(F)F | – | 0.853 ± 0.063 | 0.915 ± 0.067 | 0.956 ± 0.069 | 0.979 ± 0.071
6 | C#CCCCCCC [1-octyne] + CCCCCCCCCCCCCC[P+](CCCCCC)(CCCCCC)CCCCCC.O=S(=O)([N-]S(=O)(=O)C(F)(F)F)C(F)(F)F | – | 0.836 ± 0.062 | 0.865 ± 0.063 | 0.886 ± 0.065 | 0.899 ± 0.066
7 | C=CCCC [1-pentene] + CCCCCCCCCCCCCC[P+](CCCCCC)(CCCCCC)CCCCCC.O=S(=O)([N-]S(=O)(=O)C(F)(F)F)C(F)(F)F | – | 0.806 ± 0.06 | 0.824 ± 0.061 | 0.842 ± 0.062 | 0.85 ± 0.063
8 | C#CCCC [1-pentyne] + CCCCCCCCCCCCCC[P+](CCCCCC)(CCCCCC)CCCCCC.O=S(=O)([N-]S(=O)(=O)C(F)(F)F)C(F)(F)F | – | 0.613 ± 0.048 | 0.636 ± 0.049 | 0.663 ± 0.051 | 0.699 ± 0.053
9 | CC(C)=O [acetone] + CCCCCCCCCCCCCC[P+](CCCCCC)(CCCCCC)CCCCCC.O=S(=O)([N-]S(=O)(=O)C(F)(F)F)C(F)(F)F | – | 0.297 ± 0.033 | 0.327 ± 0.034 | 0.332 ± 0.034 | 0.334 ± 0.034
10 | c1ccccc1 [benzene] + CCCCCCCCCCCCCC[P+](CCCCCC)(CCCCCC)CCCCCC.O=S(=O)([N-]S(=O)(=O)C(F)(F)F)C(F)(F)F | – | 0.391 ± 0.036 | 0.405 ± 0.037 | 0.417 ± 0.038 | 0.437 ± 0.039
11 | CCC(C)=O [butanone] + CCCCCCCCCCCCCC[P+](CCCCCC)(CCCCCC)CCCCCC.O=S(=O)([N-]S(=O)(=O)C(F)(F)F)C(F)(F)F | – | 0.321 ± 0.034 | 0.309 ± 0.033 | 0.324 ± 0.034 | 0.331 ± 0.034
12 | C1CCCCCC1 [cycloheptane] + CCCCCCCCCCCCCC[P+](CCCCCC)(CCCCCC)CCCCCC.O=S(=O)([N-]S(=O)(=O)C(F)(F)F)C(F)(F)F | – | 0.87 ± 0.064 | 0.881 ± 0.065 | 0.891 ± 0.065 | 0.905 ± 0.066
13 | C1CCCCC1 [cyclohexane] + CCCCCCCCCCCCCC[P+](CCCCCC)(CCCCCC)CCCCCC.O=S(=O)([N-]S(=O)(=O)C(F)(F)F)C(F)(F)F | – | 0.795 ± 0.059 | 0.797 ± 0.059 | 0.798 ± 0.059 | 0.8 ± 0.059
14 | C1CCCCCCC1 [cyclooctane] + CCCCCCCCCCCCCC[P+](CCCCCC)(CCCCCC)CCCCCC.O=S(=O)([N-]S(=O)(=O)C(F)(F)F)C(F)(F)F | – | 0.963 ± 0.07 | 0.998 ± 0.072 | 1.07 ± 0.078 | 1.12 ± 0.082
15 | C1CCCC1 [cyclopentane] + CCCCCCCCCCCCCC[P+](CCCCCC)(CCCCCC)CCCCCC.O=S(=O)([N-]S(=O)(=O)C(F)(F)F)C(F)(F)F | – | 0.687 ± 0.052 | 0.698 ± 0.053 | 0.713 ± 0.054 | 0.721 ± 0.055
16 | C=CCCCC [hex-1-ene] + CCCCCCCCCCCCCC[P+](CCCCCC)(CCCCCC)CCCCCC.O=S(=O)([N-]S(=O)(=O)C(F)(F)F)C(F)(F)F | – | 0.907 ± 0.066 | 0.921 ± 0.067 | 0.93 ± 0.068 | 0.942 ± 0.068
17 | CCCCCC [hexane] + CCCCCCCCCCCCCC[P+](CCCCCC)(CCCCCC)CCCCCC.O=S(=O)([N-]S(=O)(=O)C(F)(F)F)C(F)(F)F | – | 1.1 ± 0.08 | 1.11 ± 0.081 | 1.12 ± 0.082 | 1.13 ± 0.083
18 | CO [methanol] + CCCCCCCCCCCCCC[P+](CCCCCC)(CCCCCC)CCCCCC.O=S(=O)([N-]S(=O)(=O)C(F)(F)F)C(F)(F)F | – | 1.08 ± 0.079 | 1.03 ± 0.074 | 0.922 ± 0.067 | 0.863 ± 0.063
19 | CCCCCCCCC [nonane] + CCCCCCCCCCCCCC[P+](CCCCCC)(CCCCCC)CCCCCC.O=S(=O)([N-]S(=O)(=O)C(F)(F)F)C(F)(F)F | – | 1.6 ± 0.12 | 1.67 ± 0.13 | 1.77 ± 0.14 | 1.87 ± 0.14
20 | CCCCCCCC [octane] + CCCCCCCCCCCCCC[P+](CCCCCC)(CCCCCC)CCCCCC.O=S(=O)([N-]S(=O)(=O)C(F)(F)F)C(F)(F)F | – | 1.4 ± 0.1 | 1.44 ± 0.11 | 1.46 ± 0.11 | 1.49 ± 0.11
21 | CCCCC [pentane] + CCCCCCCCCCCCCC[P+](CCCCCC)(CCCCCC)CCCCCC.O=S(=O)([N-]S(=O)(=O)C(F)(F)F)C(F)(F)F | – | 0.96 ± 0.07 | 0.978 ± 0.071 | 0.99 ± 0.072 | 1 ± 0.072
22 | CCCO [propan-1-ol] + CCCCCCCCCCCCCC[P+](CCCCCC)(CCCCCC)CCCCCC.O=S(=O)([N-]S(=O)(=O)C(F)(F)F)C(F)(F)F | – | 1.28 ± 0.095 | 1.15 ± 0.084 | 1.07 ± 0.078 | 0.953 ± 0.069
23 | Cc1ccccc1 [toluene] + CCCCCCCCCCCCCC[P+](CCCCCC)(CCCCCC)CCCCCC.O=S(=O)([N-]S(=O)(=O)C(F)(F)F)C(F)(F)F | – | 0.452 ± 0.039 | 0.472 ± 0.04 | 0.486 ± 0.041 | 0.51 ± 0.042
